The values that follow come from US20210059984A1, “METHOD AND COMPOSITION FOR REVERSING COGNITIVE IMPAIRMENTS AND LOSS USING SGLT2 INHIBITORS” (TAISHO PHARMACEUTICAL CO., LTD., priority 2019, published 2021).

In one test the target is T1, SGLT2 (Homo sapiens, UniProt P31639).
T1 sequence (P31639 1-672): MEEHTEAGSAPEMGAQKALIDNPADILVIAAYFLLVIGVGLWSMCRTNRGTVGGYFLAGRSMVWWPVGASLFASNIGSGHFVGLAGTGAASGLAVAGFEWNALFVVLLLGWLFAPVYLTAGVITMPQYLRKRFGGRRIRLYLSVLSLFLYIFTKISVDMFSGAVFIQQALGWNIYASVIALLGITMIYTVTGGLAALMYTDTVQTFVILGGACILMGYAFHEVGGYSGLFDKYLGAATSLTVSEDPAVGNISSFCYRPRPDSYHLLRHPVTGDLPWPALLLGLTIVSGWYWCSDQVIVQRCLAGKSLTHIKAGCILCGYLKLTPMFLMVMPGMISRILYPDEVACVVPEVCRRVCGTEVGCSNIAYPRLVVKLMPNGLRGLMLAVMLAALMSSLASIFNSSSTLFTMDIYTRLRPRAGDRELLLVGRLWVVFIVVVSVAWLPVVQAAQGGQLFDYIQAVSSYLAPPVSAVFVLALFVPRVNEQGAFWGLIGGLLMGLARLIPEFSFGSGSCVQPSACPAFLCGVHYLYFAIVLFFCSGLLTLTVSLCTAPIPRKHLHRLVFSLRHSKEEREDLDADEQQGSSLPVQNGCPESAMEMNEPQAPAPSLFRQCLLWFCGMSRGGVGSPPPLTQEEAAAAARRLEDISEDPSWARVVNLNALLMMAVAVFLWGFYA
As to conditions: among the three FDA approved drugs; cited from earlier work.

Another test relates to diabetic patients. As to conditions: mean age 77 years, 12-month administration; cited from earlier work.
A further test relates to diabetic mice. Particulars: cited from earlier work.
Test [1] deals with T2DN rats. The experiment in a line: Eight-arm radial water maze test of spatial learning and memory. As to conditions: DM (T2DN) rats, tests 2, 24, 48 and 72 hours post training; FIG. 8. The test is classed as in vivo, rat. Here is the method: Unless otherwise indicated, all experiments using SGLT2 inhibitors were performed on 18-month old male Sprague Dawley (SD) and 14-month old […] rats, a genetic rat model of type II diabetes. Outbred SD rats purchased from Charles River were used as a nondiabetic control rat since identical genotypes are not necessary for this study. […] rats were prepared according to Diabetes, vol. 53, March 2004, pages 735-742. […] Treatment with an SGLT2 inhibitor began at 14-months of age and lasted for 4 months to determine whether control of hyperglycemia can slow the progression of cognitive dysfunction. Rats received either a vehicle or the SGLT2 inhibitor, luseogliflozin, at a dose of 20 mg/kg/day via drinking water. The SD rats were used as control. […] The rats are trained to identify a platform marked with a visual cue in one of the 8 arms of the pool to escape. Four memory trials are performed at 2, 24, 48 and 72 hrs after the training, which consist of 4 consecutive swims. The time to reach the platform (latency), the number of errors, distance traveled and swim speed were recorded (Nat Protoc 1: 1671-1679, 2006). Control, DM and DM luseogliflozin treated rats were trained on the first day to recognize the platform located in one of the eight arms to escape, and repeated tests were performed 2, 24, 48, and 72 hours post training. The time taken by the rats to reach the platform was recorded. […]

For test [2], the system named is T2DN rats. The experiment in a line: Plasma glucose and HbA1c levels in aged diabetic T2DN rats during drug treatment. The test is classed as in vivo, rat. As to conditions: 20 mg/kg/day via drinking water, from 14 months of age for 4 months, FIG. 3. Here is the method: (§1) Unless otherwise indicated, all experiments using SGLT2 inhibitors were performed on 18-month old male Sprague Dawley (SD) and 14-month old […] rats, a genetic rat model of type II diabetes. Outbred SD rats purchased from Charles River were used as a nondiabetic control rat since identical genotypes are not necessary for this study. […] rats were prepared according to Diabetes, vol. 53, March 2004, pages 735-742. […] Treatment with an SGLT2 inhibitor began at 14-months of age and lasted for 4 months to determine whether control of hyperglycemia can slow the progression of cognitive dysfunction. Rats received either a vehicle or the SGLT2 inhibitor, luseogliflozin, at a dose of 20 mg/kg/day via drinking water. The SD rats were used as control. The levels of plasma glucose and HbA1c were measured by drawing a drop of blood from the tail vein during drug treatment and using traditional analytical methods to determine the concentration of plasma glucose and HbA1c.

Test [3] concerns middle cerebral artery of T2DN rats. As to the kind of experiment: Pressure-induced myogenic response of isolated middle cerebral artery. As to conditions: aged T2DN rats, 20 mg/kg/day via drinking water for 4 months; FIG. 4. The test is classed as ex vivo, rat. The source says:
To measure the myogenic response of cerebral arteries, a section of the brain containing middle cerebral artery (MCA) was dissected and immediately placed in Tyrode's solution. A branch of the MCA was microdissected and cannulated with glass pipettes in a pressure myograph chamber filled with a physiologic salt solution (PSS). The vessels were equilibrated at a transmural pressure of 40 mmHg to develop spontaneous tone. After preconditioning, the inner diameter (ID) of MCA in response to intraluminal pressures ranging from 40 to 180 mmHg in steps of 20 mmHg was measured to access the myogenic response. Then, a passive pressure-diameter relationship was determined by replacing the bath solution with calcium-free PSS. The myogenic reactivity in response to an elevation in perfusion pressure was calculated by the formula: IDpressure/D40 mmHg×100(%). […] Next the effect of SGLT2 inhibitor was examined in the treatment of impaired myogenic response and autoregulation of cerebral blood flow was determined. […] The myogenic reactivity in response to an elevation in perfusion pressure was calculated by the formula: Dpressure/ID60 mmHg×100(%). […] After a 10-min equilibration period, baseline CBF was measured at 100 mmHg. […] CBF was measured at each step when the MAP reached a steady state. The infusion of phenylephrine was then stopped which allowed MAP to return to 100 mmHg, and CBF was re-recorded. […]

For test [4], the system named is T2DN rats. The experiment in a line: Blood-brain barrier leakage by Evans blue dye. As to conditions: aged T2DN rats, long-term treatment, MAP 180 mmHg for 1 hour; FIG. 6. The test is classed as in vivo, rat. On the procedure:
Unless otherwise indicated, all experiments using SGLT2 inhibitors were performed on 18-month old male Sprague Dawley (SD) and 14-month old […] rats, a genetic rat model of type II diabetes. Outbred SD rats purchased from Charles River were used as a nondiabetic control rat since identical genotypes are not necessary for this study. […] rats were prepared according to Diabetes, vol. 53, March 2004, pages 735-742. […] Treatment with an SGLT2 inhibitor began at 14-months of age and lasted for 4 months to determine whether control of hyperglycemia can slow the progression of cognitive dysfunction. Rats received either a vehicle or the SGLT2 inhibitor, luseogliflozin, at a dose of 20 mg/kg/day via drinking water. The SD rats were used as control. To determine the impact of higher cerebral blood flow with extended middle cerebral artery diameters on the brain, the brains of SGLT2-treated and untreated rats were assessed for blood brain leakage (BBB). Evans blue (EB) dye was used to compare the degree of BBB leakage. EB was injected via the femoral vein, and MAP was maintained at 180 mmHg for 1 hour by adjusting the infusion rate of phenylephrine. […] The brain was then homogenized and BBB leakage was quantitated using a fluorescent microplate reader at excitation and emission wavelengths of 620 nm and 680 nm.

Test [5] has as its system T2DN rats. As to the kind of experiment: Autoregulation of cerebral blood flow (laser Doppler flowmetry). As to conditions: aged T2DN rats, 20 mg/kg/day via drinking water for 4 months; FIG. 5. The test is classed as in vivo, rat. On the procedure: Measurements of arterial pressure and cortical blood flow (CBF) were performed by inserting cannulas in the femoral artery and vein for drug delivery and monitoring the mean arterial pressure (MAP). A closed cranial window was prepared on both sides of the brain by thinning the bone using a dental drill until the vessels on the surface of the brain could be visualized. Cortical blood flow (CBF) was measured using a laser Doppler flowmeter (LDF). Unless otherwise indicated, all experiments using SGLT2 inhibitors were performed on 18-month old male Sprague Dawley (SD) and 14-month old […] rats, a genetic rat model of type II diabetes. […] Next the effect of SGLT2 inhibitor was examined in the treatment of impaired myogenic response and autoregulation of cerebral blood flow was determined. […] The myogenic reactivity in response to an elevation in perfusion pressure was calculated by the formula: Dpressure/ID60 mmHg×100(%). […] After a 10-min equilibration period, baseline CBF was measured at 100 mmHg. […] CBF was measured at each step when the MAP reached a steady state. The infusion of phenylephrine was then stopped which allowed MAP to return to 100 mmHg, and CBF was re-recorded. […] Percentage change of CBF was calculated by the formula: [(CBFMAP-CBFbaseline)/CBFbaseline]×100(%).

The subject of test [6] is T2DN rats. As to the kind of experiment: Functional hyperemia (neurovascular coupling) in response to whisker stimulation. The test is classed as in vivo, rat. As to conditions: old diabetic T2DN rats, whisker stimulation 10 Hz for 60 seconds; FIG. 7. Here is the method:
as §1, with “[…] In these studies, neurovascular coupling (NVC) responses were investigated prior to cerebral autoregulation study. […] Cortical blood flow (CBF) was measured using a laser Doppler flowmeter ([…] probe was placed above somatosensory cortex for the recording” for “The levels”, “LDF signal change (CBFchange). Percentage changes in CBF at various perfusion pressures vs. CBF at perfusion pressure of 100 mmHg” for “plasma glucose and HbA1c”, “determined in response” for “measured by drawing a drop of blood from the tail vein during drug treatment and using traditional analytical methods”, “whisker stimulation.” for “determine the concentration of plasma glucose and HbA1c.”

In the case of `OC[C@H]1O[C@@H](c2ccc(Cl)c(Cc3ccc(O[C@H]4CCOC4)cc3)c2)[C@H](O)[C@@H](O)[C@@H]1O` [empagliflozin], the “selectivity for SGLT2 compared to SGLT1” value at SGLT2 is “greatest selectivity”. The “cognitive functions (cognitive performance)” value in the test with diabetic patients is given as “no worsening of their cognitive functions”. In addition, the cognitive function entry with diabetic mice is on record as “cognitive function improving effect”.

`Cc1ccc([C@@H]2O[C@H](CO)[C@@H](O)[C@H](O)[C@H]2O)cc1Cc1ccc(-c2ccc(F)cc2)s1` [canagliflozin]: the “selectivity for SGLT2 compared to SGLT1” value at SGLT2 is given as “least selective”. Besides, the “cognitive functions (cognitive performance)” value in the test with diabetic patients was “no worsening of their cognitive functions”.

For `CCOc1ccc(Cc2cc([C@@H]3S[C@H](CO)[C@@H](O)[C@H](O)[C@H]3O)c(OC)cc2C)cc1` [luseogliflozin], the “escape time (time to reach the platform), cognitive performance” value with T2DN rats [1] was “reduced escape time similar to normal rats”. Also, in the test on T2DN rats [2], the “levels of HbA1c” value was “reduced both the levels of plasma glucose and HbA1c to near normal”; the “levels of plasma glucose” value was “reduced both the levels of plasma glucose and HbA1c to near normal”. In addition, the “diameters of middle cerebral artery upon exposure to higher perfusion pressures (myogenic response)” value in test [3] is listed as “completely reversed the increase in the diameters of middle cerebral artery”. Further, in the test on T2DN rats [4], the “blood brain barrier damage (Evans blue leakage)” value is listed as “completely reversed the blood brain barrier damage”. Moreover, in the test with T2DN rats [5], the “cerebral blood flow on elevation of MAP (autoregulation)” value is listed as “restored to normal levels”. Besides, the “functional hyperemia in response to whisker stimulation” value in the test with T2DN rats [6] is on record as “restored”.
